Data set [1] can be described thus: Cytotoxicity assay (MTT), HPC normal cells. The format is cell-based. The note with it: human, HPC normal oral cells, non-tumor cells. How it is done: (§1) The cytotoxicity of the compounds 4a - 4j were assayed towards human tumor cell lines [gingival carcinoma (Ca9–22), oral squamous cell carcinoma (HSC-2)] and human normal oral cells [gingival fibroblasts (HGF), and periodontal ligament fibroblasts (HPLF)] as described [42, 54 – 56]. In brief, all cells were cultured in Dulbecco’s modified eagle’s medium (DMEM) supplemented with 10% fetal bovine serum (FBS). The following concentrations of the compounds in dimethylsulfoxide (DMSO) were added to the medium and incubated at 37 ° C for 48 h: 4a - 4j ([…]), melphalan (3.12, 6.25, 12.5, 25. 50, 100, 200 and […]) and 5-FU ([…]). The media that contained the same concentration of DMSO ([…], 0.03125, 0.0625, 0.125, 0.25, 0.5 or 1%) were used as controls since DMSO above 0.25% is cytotoxic. The viable cell numbers were determined by the 3-(4,5-dimethylthiazol-2-yl)-2,5-diphenyltetrazolium bromide (MTT) assay. The CC50 values were determined from dose-response curves.
(§2) Cytotoxicity’s of the compounds 4a - 4j were evaluated towards Ca9–22, HSC-2, HSC-3, and HSC-4 human oral squamous cell carcinoma cell lines as tumor cell lines and HGF, HPLF, and HPC human normal oral cells as nontumor cells (Table 1) according to the procedure in the literature [42, 54 – 56]. 5-Fluorouracil (5-FU) was used as a reference anticancer drug.

Data set [2] deals with oral squamous cell carcinoma (HSC-2) cells. Briefly: Cytotoxicity assay (MTT), HSC-2. In kind it is cell-based, human. The conditions noted are these: for CC50: Homo sapiens, HSC-2, tumor cell line, 48 h, MTT; for times of potency compared to 5-FU, HSC-2: cytotoxicity relative to 5-FU. The method, then:
as §1, §2

For data set [3], the system named is gingival carcinoma (Ca9-22) cells. As to the kind of experiment: Cytotoxicity assay (MTT), Ca9-22. The format is cell-based, human. The conditions noted are these: for CC50: Homo sapiens, Ca9-22, tumor cell line, 48 h, MTT; for times of potency compared to 5-FU, Ca9-22: cytotoxicity relative to 5-FU. How it is done:
as §1, §2

Data set [4] deals with HSC-3 oral squamous cell carcinoma cells. Briefly: Cytotoxicity assay (MTT), HSC-3. In kind it is cell-based. The note with it: Homo sapiens, tumor cell line, 48 h. How it is done:
as §1, §2

Data set [5] is described as follows: Cytotoxicity assay (MTT), HPLF normal cells. The note with it: human, HPLF periodontal ligament fibroblasts (normal oral cells), non-tumor cells. In kind it is cell-based. How it is done: as §1, §2
The test system of data set [6] is HSC-4 oral squamous cell carcinoma cells. As to the kind of experiment: Cytotoxicity assay (MTT), HSC-4. The format is cell-based. The conditions noted are these: Homo sapiens, tumor cell line, 48 h. How it is done: as §1, §2
Data set [7] concerns human oral squamous cell carcinoma cell lines (Ca9-22, HSC-2, HSC-3, HSC-4). Briefly: Cytotoxicity assay, all tumor cell lines (mean, TS1, PSE1). The conditions noted are these: mean of Ca9-22, HSC-2, HSC-3, HSC-4, read-out: Tumor cell lines CC50 mean (B). The format is cell-based. The method, then:
as §1, §2
The tumor selectivity (TS1 and TS2) of each compound was calculated as described in previously reported literature procedures and these figures are presented in Table 1. Based on the TS1 values, 4f and 4g which have 2,5 and 2,4-dimethoxy substituents had the highest TS1 values in a series with 22.4 and 22.2, respectively. On the other hand, the 3,4,5-trimethoxy substituted compound 4i (TS1: 19.6) had the […] TS1 value. […] As expected, they were in accordance with the literature findings [16 – 18]. The second calculation (TS2) considered the differences of sensitivity between the malignant (Ca9–22) and non-malignant (HGF) cells derived from the same tissue (gingiva). According to TS2 values obtained, 4i (3,4,5-trimethoxy) had the highest TS2 value of 43.
The desired properties for a lead compound are being both markedly cytotoxic and selectively toxic for tumors. PSE1 reflects general cytotoxicity and selectivity potency of the compound towards all cells used, whereas PSE2 seems more specified since it was considered for the same origin cells. When the compounds tested towards OSCC lines were considered in terms of PSE2 values of the compounds. The best poly-methoxylated compounds were 4i (with 3,4,5-trimethoxy, PSE2 = 461.5) ˃ 4f (with 2,5-dimethoxy, PSE2 = 425.1) ˃ 4g (with 2,4-dimethoxy, PSE2 = 405.4) while the best mono-methoxylated derivative was 4b (with 4-methoxy, PSE2 = 205).

Data set [8] has as its target hCA II (Homo sapiens, UniProt P00918). As to the kind of experiment: Carbonic anhydrase enzyme assay (esterase activity), hCA II. The format is biochemical. The conditions noted are these: for Ki: Lineweaver-Burk plot; for IC50: esterase activity, p-nitrophenyl acetate. An excerpt:
(§3) Human CA isoforms (hCAI and hCAII) were purified by the sepharose - 4B – L - tyrosine sulfanilamide affinity segregation method as reported. […] Inhibitory effects of the compounds were investigated by measuring the esterase activity according to Verpoorte et al. as described in previous studies [61 – 63].
(§4) Vmax, maximal velocity; VImax, maximal velocity of inhibitor; I, inhibitor; Ki, the inhibitor constant.

The nature of data set [9]: Cytotoxicity assay (MTT), HGF normal cells. The format is cell-based. The conditions noted are these: human, HGF gingival fibroblasts (normal oral cells), non-tumor cells. How it is done:
as §1, §2

Data set [10] concerns the target hCA I (Homo sapiens, UniProt P00915). Briefly: Carbonic anhydrase enzyme assay (esterase activity), hCA I. The format is biochemical. The conditions noted are these: for Ki: Lineweaver-Burk plot; for IC50: esterase activity, p-nitrophenyl acetate.
Excerpt: as §3, §4

The nature of data set [11]: Cytotoxicity assay, all non-tumor cells (mean). In kind it is cell-based. The note with it: human, normal oral cells HGF, HPLF and HPC (mean of the three), read-out: Non-tumor cell lines CC50 mean (D). How it is done:
as §1, §2

This is an account of results in article PMC8326471, “Synthesis and biological evaluation of new pyrazolebenzene-sulphonamides as potential anticancer agents and hCA I and II inhibitors” (Turkish Journal of Chemistry, 2021).

The term melting point denotes the temperature of the solid-liquid transition. What is called CC50 is the concentration at which the toxic effect on the cells reaches its halfway point. As a reminder, the Ki is a measure of affinity in units of concentration, obtained from inhibition or displacement. Read a low Ki as higher affinity. In general, IC50 refers to the point on the concentration scale where inhibition reaches its midpoint. A higher IC50 goes with weaker potency.

Chain of hCA I (P00915 whole entry): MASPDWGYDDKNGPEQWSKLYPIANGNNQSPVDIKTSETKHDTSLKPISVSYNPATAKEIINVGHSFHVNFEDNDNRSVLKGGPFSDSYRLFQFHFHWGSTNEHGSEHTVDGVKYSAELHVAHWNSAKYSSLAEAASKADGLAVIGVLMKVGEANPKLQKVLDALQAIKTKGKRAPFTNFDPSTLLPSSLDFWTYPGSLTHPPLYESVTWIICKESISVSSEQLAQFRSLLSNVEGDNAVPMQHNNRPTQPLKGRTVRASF

Consider `COc1cc(C2=NN(c3ccc(S(N)(=O)=O)cc3)C(c3ccc4c(c3)OCO4)C2)ccc1O` (stereo not shown) [4j, 4-[5-(1,3-Benzodioxol-5-yl)-3-(4-hydroxy-3-methoxyphenyl)-4,5-dihydro-1H-pyrazol-1-yl]benzenesulphonamide], for which the melting point lay in the range of 161 to 163 °C. Moreover, the CC50 at 48 h in data set [1] came out at 54.3 µM. Besides, in data set [2], the CC50 is 26.7 µM and the “times of potency compared to 5-FU, HSC-2” value is given as 9.8. In [3], the CC50 turned out to be 17 µM and the “times of potency compared to 5-FU, Ca9-22” value is listed as 1.3. Half-maximal cytotoxicity in [4] (CC50) was put at 26.3 µM. The half-maximal cytotoxic concentration (CC50) at 48 h in [5] amounted to 64.7 µM. The same compound had a cytotoxic concentration (CC50) in data set [6] of 16.8 µM. In addition, in [7], the CC50 came out at 21.7 µM. Also, in [8], the Ki came to 9.3 ± 1.9 µM and 20 µM corresponded to half-maximal inhibition (IC50). Besides, in [9], the half-maximal cytotoxic concentration (CC50) at 48 h was found to be 76.7 µM. Moreover, in [10], the Ki was found to be 29.8 ± 9.4 µM and the IC50 is 17.9 µM. Further, the CC50 at 48 h in [11] was 65.2 µM.
Compound `NS(=O)(=O)c1ccc(N2N=C(c3ccccc3)CC2c2ccc3c(c2)OCO3)cc1` (stereo not shown) [4a, 4-[5-(1,3-Benzodioxol-5-yl)-3-phenyl-4,5-dihydro-1H-pyrazol-1 yl]benzenesulphonamide] displayed a melting point of 196 to 198 °C. This compound yielded a cytotoxic concentration (CC50) at 48 h in [1] of 63.2 µM. In data set [2], the CC50 came to 26.1 µM and the “times of potency compared to 5-FU, HSC-2” value is listed as 10. For the same compound, in data set [3], the 50% cytotoxic concentration (CC50) was found to be 17.1 µM and the “times of potency compared to 5-FU, Ca9-22” value amounted to 1.3. In [4], this compound showed a cytotoxic concentration (CC50) of 20.8 µM. Half-maximal cytotoxicity in data set [5] (CC50 at 48 h) was put at 37.6 µM. In data set [6], this compound returned a cytotoxic concentration (CC50) of 26.1 µM. In data set [7], the CC50 stood at 22.5 µM. In addition, in data set [8], the Ki worked out at 8.9 ± 2.3 µM and the IC50 worked out at 10.7 µM. Moreover, in [9], the midpoint of cytotoxicity, the CC50 at 48 h, lay at 56.3 µM. For the same compound, in data set [10], the inhibitory constant (Ki) was determined as 59.8 ± 3 µM and it took 30.1 µM to reach half-maximal inhibition (IC50). For the same compound, the CC50 at 48 h in data set [11] stood at 52.4 µM.
Compound `COc1cc(OC)c(C2=NN(c3ccc(S(N)(=O)=O)cc3)C(c3ccc4c(c3)OCO4)C2)cc1OC` (stereo not shown) [4h, 4-[5-(1,3-Benzodioxol-5-yl)-3-(2,4,5-trimethoxyphenyl)-4,5-dihydro-1H-pyrazol-1-yl]benzenesulphonamide] gave a melting point of 191 to 193 °C. The compound further registered a CC50 at 48 h in data set [1] of 400 µM. The same compound returned a CC50 in data set [2] of 400 µM. This compound also gave a half-maximal cytotoxic concentration (CC50) in data set [3] of 400 µM. It took 21.3 µM to reach half-maximal cytotoxicity in data set [4] (CC50). Besides, it took 400 µM to reach half-maximal cytotoxicity in data set [5] (CC50 at 48 h). In addition, in data set [6], the CC50 was found to be 21.8 µM. Besides, in data set [7], the CC50 came to 211 µM. In data set [8], this compound returned a Ki of 9.3 ± 1.6 µM and an IC50 of 14.3 µM. This compound came in with a CC50 at 48 h in [9] of 400 µM. In data set [10], this compound came in with an inhibitory constant (Ki) of 49.6 ± 1.9 µM and an IC50 of 13.8 µM. The CC50 at 48 h in [11] was 400 µM.
For `COc1cccc(C2=NN(c3ccc(S(N)(=O)=O)cc3)C(c3ccc4c(c3)OCO4)C2)c1` (stereo not shown) [4c, 4-[5-(1,3-Benzodioxol-5-yl)-3-(3-methoxyphenyl)-4,5-dihydro-1H-pyrazol-1-yl]benzenesulphonamide], the melting point lay within 184 to 186 °C. Further, in [1], the midpoint of cytotoxicity, the CC50 at 48 h, lay at 140 µM. Also, in [2], the midpoint of cytotoxicity, the CC50, lay at 18.3 µM and the “times of potency compared to 5-FU, HSC-2” value was 14.3. Further, the CC50 in [3] is 19.5 µM. Moreover, in [4], the CC50 was determined as 13.9 µM. For the same compound, the cytotoxic concentration (CC50) at 48 h in [5] worked out at 178 µM. Besides, in [6], the CC50 was determined as 18 µM. Further, in data set [7], the CC50 stood at 17.4 µM. Besides, in data set [8], the inhibitory constant (Ki) turned out to be 6.9 ± 1.5 µM and the concentration for half-maximal inhibition (IC50) is 9.2 µM. Further, the half-maximal cytotoxic concentration (CC50) at 48 h in [9] is 38.2 µM. Further, in data set [10], affinity was put at a Ki of 21.5 ± 1.5 µM and the IC50 was 6.6 µM. The CC50 at 48 h in data set [11] was found to be 119 µM.
